Measured values: PubChem BioAssay (NCI)
Several values for one entry are separate records, joined by “and”; a condition that tells them apart may be missing. Equal entries are not always repeated.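 A five-concentration, 48-hour dose response in 96-well plates underlies each endpoint, interpolated linearly between surrounding concentrations. Here, GI50 denotes the concentration required for 50% inhibition of growth. Definition used: TGI = concentration required for complete inhibition of growth.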

Legend:
Test in all cases: inhibition of tumour cell growth, NCI panel, 48 h
HOP-62 NSCLC = test system: HOP-62 NSCLC
HCC-2998 colon = test system: HCC-2998 colon
SK-MEL-5 melanoma = test system: SK-MEL-5 melanoma
U251 CNS = test system: U251 CNS
RPMI-8226 leukemia = test system: RPMI-8226 leukemia
SNB-75 CNS = test system: SNB-75 CNS
IGROV1 ovarian = test system: IGROV1 ovarian
HOP-92 NSCLC = test system: HOP-92 NSCLC

SMILES	GI50 (HOP-62 NSCLC)	TGI (HOP-62 NSCLC)	GI50 (HCC-2998 colon)	TGI (HCC-2998 colon) [µM]	GI50 (SK-MEL-5 melanoma)	TGI (SK-MEL-5 melanoma)	GI50 (U251 CNS) [µM]	TGI (U251 CNS) [µM]	GI50 (RPMI-8226 leukemia)	TGI (RPMI-8226 leukemia)	GI50 (SNB-75 CNS) [µM]	TGI (SNB-75 CNS) [µM]	TGI (IGROV1 ovarian)	TGI (HOP-92 NSCLC)	GI50 (IGROV1 ovarian)	GI50 (HOP-92 NSCLC) [µM]
COc1cc2c(c(OC)c1OC)-c1c(c3ccc([N+](=O)[O-])cc3c(=O)n1CCCBr)C2=O	15.8 µM	54.3 µM	50.4 µM	> 100	19.8 µM	65.8 µM	24.4	> 100	35 µM	> 100 µM	80	> 100	–	–	–	–
O=S(=O)(O)n1ccnc1 (tested in a mixture with another compound)	–	> 100 µM	–	–	–	> 100 µM	–	> 100	–	> 100 µM	–	> 100	> 100 µM	> 100 µM	–	–
C#CCOC(=O)/C=C/C(=O)Oc1ccc2c(C)cc(=O)oc2c1	> 100 µM	> 100 µM	40.8 µM	> 100	> 100 µM	> 100 µM	> 100	> 100	> 100 µM	> 100 µM	> 100	> 100	> 100 µM	–	> 100 µM	–
O=C(c1ccccc1)C1OC1C(=O)c1ccccc1 (configuration not stated)	–	–	2.94 µM	10.3	3.46 µM	14.3 µM	7.58	37.1	3.34 µM	11.6 µM	–	–	15 µM	6.09 µM	3.56 µM	1.96
CCOC(=O)c1c(-c2ccc(OC)c(O)c2)c(C#N)c(=S)n(C2OC(COC(C)=O)C(OC(C)=O)C(OC(C)=O)C2OC(C)=O)c1-c1ccccc1 (configuration not stated)	26.5 µM and > 100 µM	72.2 µM and > 100 µM	31.8 µM and > 100 µM	> 100	15.5 µM and > 100 µM	33.4 µM and > 100 µM	–	> 100	36.5 µM and 6.1 µM	81.5 µM and > 100 µM	–	–	47.7 µM and > 100 µM	87.9 µM and > 100 µM	23.6 µM and > 100 µM	–
